From the NIST ThermoML archive (doi:10.1016/j.jct.2006.05.008)
± gives the expanded uncertainty stated by the source.

Assay: molar heat capacity at constant pressure; wn = mass fraction of the nth substance listed
Details: Small (less than 1 g) adiabatic calorimetry

CCCCn1cc[n+](C)c1.[Br-] [1-butyl-3-methylimidazolium bromide] + O
Crystal
Details	molar heat capacity at constant pressure [J/K/mol]
218.45 K, w2 = 0.00482	179.81 ± 0.92
218.58 K, w2 = 0.0495	158.93 ± 0.83
218.67 K, w2 = 0.00482	179.82 ± 0.92
219.16 K, w2 = 0.0051	180.49 ± 0.92
219.16 K, w2 = 0.0169	170.74 ± 0.88
219.92 K, w2 = 0.0169	174.79 ± 0.9
220.75 K, w2 = 0.00482	181.03 ± 0.93
221.08 K, w2 = 0.00482	181.37 ± 0.93
221.13 K, w2 = 0.0495	162.83 ± 0.85
221.26 K, w2 = 0.0169	172.67 ± 0.89
221.69 K, w2 = 0.0051	182.19 ± 0.93
221.98 K, w2 = 0.0169	175.21 ± 0.9
222.83 K, w2 = 0.00482	182.24 ± 0.93
223.35 K, w2 = 0.0169	174.92 ± 0.9
223.65 K, w2 = 0.0495	166.27 ± 0.86
224.06 K, w2 = 0.0169	176.93 ± 0.91
224.22 K, w2 = 0.0051	184.17 ± 0.94
224.86 K, w2 = 0.00482	183.19 ± 0.93
225.43 K, w2 = 0.0169	177.21 ± 0.91
226.12 K, w2 = 0.0169	179.17 ± 0.92
226.16 K, w2 = 0.0495	169.5 ± 0.88
226.71 K, w2 = 0.00482	184.71 ± 0.94
226.73 K, w2 = 0.0051	185.92 ± 0.94
227.52 K, w2 = 0.0169	179.5 ± 0.92
228.19 K, w2 = 0.0169	181.4 ± 0.93
228.65 K, w2 = 0.0495	172.65 ± 0.89
228.79 K, w2 = 0.00482	185.77 ± 0.94
229.25 K, w2 = 0.0051	187.95 ± 0.95
229.6 K, w2 = 0.0169	181.84 ± 0.93
229.71 K, w2 = 0.0051	187.47 ± 0.95
230.25 K, w2 = 0.0169	183.78 ± 0.93
230.87 K, w2 = 0.00482	187.3 ± 0.95
231.12 K, w2 = 0.0495	175.4 ± 0.9
231.45 K, w2 = 0.0051	188.82 ± 0.96
231.69 K, w2 = 0.0169	184.4 ± 0.94
231.75 K, w2 = 0.0051	189.69 ± 0.96
232.32 K, w2 = 0.0169	185.93 ± 0.94
232.95 K, w2 = 0.00482	188.74 ± 0.95
233 K, w2 = 0.0051	190.22 ± 0.96
233.57 K, w2 = 0.0495	178.39 ± 0.92
233.77 K, w2 = 0.0169	186.45 ± 0.94
234.38 K, w2 = 0.0169	187.94 ± 0.96
234.56 K, w2 = 0.0051	191.21 ± 0.96
235.03 K, w2 = 0.00482	190.17 ± 0.96
235.85 K, w2 = 0.0169	188.93 ± 0.96
236.01 K, w2 = 0.0495	181.58 ± 0.93
236.12 K, w2 = 0.0051	192.22 ± 0.97
236.45 K, w2 = 0.0169	189.99 ± 0.96
237.1 K, w2 = 0.00482	191.7 ± 0.97
237.67 K, w2 = 0.0051	193.48 ± 0.97
237.94 K, w2 = 0.0169	190.98 ± 0.96
238.43 K, w2 = 0.0495	184.7 ± 0.95
238.52 K, w2 = 0.0169	191.98 ± 0.98
239.18 K, w2 = 0.00482	193.21 ± 0.97
239.22 K, w2 = 0.0051	194.65 ± 0.98
240.02 K, w2 = 0.0169	193.19 ± 0.98
240.19 K, w2 = 0.00482	193.43 ± 0.97
240.58 K, w2 = 0.0169	194.1 ± 0.98
240.74 K, w2 = 0.0051	195.27 ± 0.98
240.77 K, w2 = 0.0051	195.7 ± 0.98
240.84 K, w2 = 0.0495	187.48 ± 0.95
241.25 K, w2 = 0.00482	195.08 ± 0.98
241.57 K, w2 = 0.00482	194.88 ± 0.98
242.11 K, w2 = 0.0169	195.39 ± 0.98
242.23 K, w2 = 0.0051	196.6 ± 0.99
242.33 K, w2 = 0.0051	196.86 ± 0.99
242.65 K, w2 = 0.0169	196.25 ± 0.98
243.11 K, w2 = 0.00482	195.57 ± 0.98
243.23 K, w2 = 0.0495	190.7 ± 0.96
243.33 K, w2 = 0.00482	196.58 ± 0.99
243.57 K, w2 = 0.0051	197.62 ± 0.99
243.88 K, w2 = 0.0051	198.03 ± 0.99
244.2 K, w2 = 0.0169	197.53 ± 0.99
244.66 K, w2 = 0.00482	197.15 ± 0.99
244.72 K, w2 = 0.0169	198.26 ± 0.99
244.91 K, w2 = 0.0051	198.42 ± 0.99
245.41 K, w2 = 0.00482	198.24 ± 0.99
245.43 K, w2 = 0.0051	199.16 ± 1
245.6 K, w2 = 0.0495	193.88 ± 0.97
246.12 K, w2 = 0.00482	197.87 ± 0.99
246.21 K, w2 = 0.00482	198.68 ± 0.99
246.25 K, w2 = 0.0051	199.47 ± 1
246.28 K, w2 = 0.0169	199.77 ± 0.99
246.78 K, w2 = 0.0169	200.42 ± 0.99
246.98 K, w2 = 0.0051	200.29 ± 1
247.48 K, w2 = 0.00482	199.98 ± 1
247.59 K, w2 = 0.0051	200.49 ± 1
247.77 K, w2 = 0.00482	200.2 ± 1
247.97 K, w2 = 0.0495	197.01 ± 0.99
248.37 K, w2 = 0.0169	201.97 ± 1
248.53 K, w2 = 0.0051	201.44 ± 1
248.85 K, w2 = 0.0169	202.5 ± 1
248.93 K, w2 = 0.0051	201.61 ± 1
249.33 K, w2 = 0.00482	201.33 ± 1
249.56 K, w2 = 0.00482	201.61 ± 1
250.07 K, w2 = 0.0051	202.63 ± 1
250.26 K, w2 = 0.0051	202.66 ± 1
250.31 K, w2 = 0.0495	200.17 ± 1
250.45 K, w2 = 0.0169	204.14 ± 1
250.89 K, w2 = 0.00482	202.59 ± 1
250.91 K, w2 = 0.0169	204.77 ± 1
251.6 K, w2 = 0.0051	203.88 ± 1
251.64 K, w2 = 0.00482	203.37 ± 1
252.15 K, w2 = 0.0051	204.56 ± 1
252.45 K, w2 = 0.00482	203.62 ± 1
252.53 K, w2 = 0.0169	206.36 ± 1
252.64 K, w2 = 0.0495	203.4 ± 1
252.93 K, w2 = 0.0051	205.05 ± 1
252.97 K, w2 = 0.0169	206.96 ± 1
253.72 K, w2 = 0.00482	205.38 ± 1
253.96 K, w2 = 0.00482	204.5 ± 1
254 K, w2 = 0.00482	205.09 ± 1
254.27 K, w2 = 0.0051	206.08 ± 1
254.62 K, w2 = 0.0169	208.6 ± 1
254.74 K, w2 = 0.0051	206.57 ± 1
254.95 K, w2 = 0.0495	206.71 ± 1
255.04 K, w2 = 0.0169	209.12 ± 1
255.56 K, w2 = 0.00482	206.28 ± 1
255.6 K, w2 = 0.0051	207.19 ± 1
255.8 K, w2 = 0.00482	206.96 ± 1
255.99 K, w2 = 0.00482	206.25 ± 1
256.7 K, w2 = 0.0169	211 ± 1.1
256.94 K, w2 = 0.0051	208.23 ± 1

101 kPa, Liquid
Details	molar heat capacity at constant pressure [J/K/mol]
220.21 K, w2 = 0.0495	192.42 ± 0.97
221.78 K, w2 = 0.00482	273.75 ± 1.3
222.3 K, w2 = 0.0495	192.93 ± 0.97
223.87 K, w2 = 0.00482	274.35 ± 1.3
224.39 K, w2 = 0.0495	193.35 ± 0.97
225.97 K, w2 = 0.00482	274.97 ± 1.3
226.48 K, w2 = 0.0495	193.78 ± 0.97
228.05 K, w2 = 0.00482	275.41 ± 1.3
228.57 K, w2 = 0.0495	194.3 ± 0.97
230.14 K, w2 = 0.00482	275.97 ± 1.3
230.66 K, w2 = 0.0495	194.89 ± 0.97
232.23 K, w2 = 0.00482	276.47 ± 1.3
232.75 K, w2 = 0.0495	195.6 ± 0.99
234.32 K, w2 = 0.00482	276.93 ± 1.3
236.41 K, w2 = 0.00482	277.36 ± 1.3
238.51 K, w2 = 0.00482	278.01 ± 1.3
240.59 K, w2 = 0.00482	278.63 ± 1.3
242.68 K, w2 = 0.00482	279.3 ± 1.3
244.77 K, w2 = 0.00482	280.02 ± 1.3
246.87 K, w2 = 0.00482	280.54 ± 1.3
248.96 K, w2 = 0.00482	281.17 ± 1.3
256.19 K, w2 = 0.0495	201.27 ± 1
